Experimental data as given in ChEMBL document CHEMBL3885861, “Open TG-GATES”.

Species: Rattus norvegicus
Experiment: Open TG-GATES - Regimen: Daily Repeat
Format: toxicity, organism-based, Sprague-Dawley
Set-up: regimen Daily Repeat, gender Male, age 6 weeks
Settings: in vivo, po, 15 mg/kg, route gavage, dose level Middle; for APTT / Bas / Eos / Fbg / Hb / Ht / Lym / MCH / MCHC / MCV / Mono / Neu / PT / Plat / RBC / Ret / WBC: tissue Blood; for KIDNEY_L / KIDNEY_R / KIDNEY_TOTAL: tissue Kidney; for LIVER: tissue Liver; for A/G / ALP / ALT / AST / BUN / CRE / Ca / Cl / DBIL / GLC / IP / K / LDH / Na / PL / RALB / TBIL / TC / TG / TP / gamma-GTP: tissue Plasma

CC(=N)S [THIOACETAMIDE]
TERMINAL_BW (72 h, time 3 day): 220.4 g
APTT (72 h, time 3 day): 16.6 s
Bas (72 h, time 3 day): 0%
Eos (72 h, time 3 day): 1%
Fbg (72 h, time 3 day): 254.2 mg/dL
Hb (72 h, time 3 day): 14 g/dL
Ht (72 h, time 3 day): 42.5%
Lym (72 h, time 3 day): 84%
MCH (72 h, time 3 day): 20.9 pg
MCHC (72 h, time 3 day): 33.1%
MCV (72 h, time 3 day): 63.2 fL
Mono (72 h, time 3 day): 5.2%
Neu (72 h, time 3 day): 9.6%
PT (72 h, time 3 day): 12.2 s
Plat (72 h, time 3 day): 113 x10_4/uL
RBC (72 h, time 3 day): 672.4 x10_4/ul
Ret (72 h, time 3 day): 5.5%
WBC (72 h, time 3 day): 167.1 x10_2/uL
KIDNEY_L (72 h, time 3 day): 1 g
KIDNEY_R (72 h, time 3 day): 1 g
KIDNEY_TOTAL (72 h, time 3 day): 1.9 g
LIVER (72 h, time 3 day): 11.1 g
A/G (72 h, time 3 day): 2.1
ALP (72 h, time 3 day): 896 IU/L
ALT (72 h, time 3 day): 29.2 IU/L
AST (72 h, time 3 day): 57.2 IU/L
BUN (72 h, time 3 day): 17 mg/dL
CRE (72 h, time 3 day): 0.5 mg/dL
Ca (72 h, time 3 day): 10.5 mg/dL
Cl (72 h, time 3 day): 105.8 meq/L
DBIL (72 h, time 3 day): 0.02 mg/dL
GLC (72 h, time 3 day): 176.2 mg/dL
IP (72 h, time 3 day): 7.5 mg/dL
K (72 h, time 3 day): 5 meq/L
LDH (72 h, time 3 day): 92.8 IU/L
Na (72 h, time 3 day): 137.6 meq/L
PL (72 h, time 3 day): 159.4 mg/dL
RALB (72 h, time 3 day): 3.9 g/dL
TBIL (72 h, time 3 day): 0.3 mg/dL
TC (72 h, time 3 day): 76.4 mg/dL
TG (72 h, time 3 day): 148 mg/dL
TP (72 h, time 3 day): 5.8 g/dL
gamma-GTP (72 h, time 3 day): 2.4 IU/L
TERMINAL_BW ([…], time 7 day): 248.4 g
TERMINAL_BW ([…], time 14 day): 276.3 g
TERMINAL_BW ([…], time 28 day): 324.2 g
APTT ([…], time 7 day): 16.4 s
Bas ([…], time 7 day): 0%
Eos ([…], time 7 day): 1%
Fbg ([…], time 7 day): 247.2 mg/dL
Hb ([…], time 7 day): 13.9 g/dL
Ht ([…], time 7 day): 42.1%
Lym ([…], time 7 day): 82.8%
MCH ([…], time 7 day): 20.8 pg
MCHC ([…], time 7 day): 33%
MCV ([…], time 7 day): 63 fL
Mono ([…], time 7 day): 5.4%
Neu ([…], time 7 day): 11.2%
PT ([…], time 7 day): 12.7 s
Plat ([…], time 7 day): 108.4 x10_4/uL
RBC ([…], time 7 day): 668.4 x10_4/ul
Ret ([…], time 7 day): 4.5%
WBC ([…], time 7 day): 170.4 x10_2/uL
APTT ([…], time 14 day): 16.4 s
Bas ([…], time 14 day): 0%
Eos ([…], time 14 day): 1%
Fbg ([…], time 14 day): 239.8 mg/dL
Hb ([…], time 14 day): 14.7 g/dL
Ht ([…], time 14 day): 44%
Lym ([…], time 14 day): 79.8%
MCH ([…], time 14 day): 19.7 pg
MCHC ([…], time 14 day): 33.3%
MCV ([…], time 14 day): 59.3 fL
Mono ([…], time 14 day): 7.6%
Neu ([…], time 14 day): 11.8%
PT ([…], time 14 day): 13 s
Plat ([…], time 14 day): 111.2 x10_4/uL
RBC ([…], time 14 day): 743.4 x10_4/ul
Ret ([…], time 14 day): 3.5%
WBC ([…], time 14 day): 202.6 x10_2/uL
APTT ([…], time 28 day): 16.6 s
Bas ([…], time 28 day): 0%
Eos ([…], time 28 day): 1%
Fbg ([…], time 28 day): 240.2 mg/dL
Hb ([…], time 28 day): 15.1 g/dL
Ht ([…], time 28 day): 44.7%
Lym ([…], time 28 day): 75.4%
MCH ([…], time 28 day): 19 pg
MCHC ([…], time 28 day): 33.9%
MCV ([…], time 28 day): 56.1 fL
Mono ([…], time 28 day): 8.6%
Neu ([…], time 28 day): 14.8%
PT ([…], time 28 day): 11.9 s
Plat ([…], time 28 day): 116.1 x10_4/uL
RBC ([…], time 28 day): 798.6 x10_4/ul
Ret ([…], time 28 day): 3.2%
WBC ([…], time 28 day): 149.2 x10_2/uL
KIDNEY_L ([…], time 7 day): 1.1 g
KIDNEY_R ([…], time 7 day): 1.1 g
KIDNEY_TOTAL ([…], time 7 day): 2.2 g
KIDNEY_L ([…], time 14 day): 1.2 g
KIDNEY_R ([…], time 14 day): 1.2 g
KIDNEY_TOTAL ([…], time 14 day): 2.3 g
KIDNEY_L ([…], time 28 day): 1.2 g
KIDNEY_R ([…], time 28 day): 1.2 g
KIDNEY_TOTAL ([…], time 28 day): 2.4 g
LIVER ([…], time 7 day): 12.8 g
LIVER ([…], time 14 day): 12.7 g
LIVER ([…], time 28 day): 14.1 g
A/G ([…], time 7 day): 2
ALP ([…], time 7 day): 926.6 IU/L
ALT ([…], time 7 day): 29.4 IU/L
AST ([…], time 7 day): 54.2 IU/L
BUN ([…], time 7 day): 19 mg/dL
CRE ([…], time 7 day): 0.6 mg/dL
Ca ([…], time 7 day): 10.5 mg/dL
Cl ([…], time 7 day): 105.6 meq/L
DBIL ([…], time 7 day): 0.016 mg/dL
GLC ([…], time 7 day): 172.4 mg/dL
IP ([…], time 7 day): 7.9 mg/dL
K ([…], time 7 day): 5.1 meq/L
LDH ([…], time 7 day): 97.4 IU/L
Na ([…], time 7 day): 136.2 meq/L
PL ([…], time 7 day): 152.6 mg/dL
RALB ([…], time 7 day): 4 g/dL
TBIL ([…], time 7 day): 0.3 mg/dL
TC ([…], time 7 day): 75.6 mg/dL
TG ([…], time 7 day): 114.8 mg/dL
TP ([…], time 7 day): 5.9 g/dL
gamma-GTP ([…], time 7 day): 2.4 IU/L
A/G ([…], time 14 day): 2.1
ALP ([…], time 14 day): 760.2 IU/L
ALT ([…], time 14 day): 26.2 IU/L
AST ([…], time 14 day): 47.2 IU/L
BUN ([…], time 14 day): 20.4 mg/dL
CRE ([…], time 14 day): 0.6 mg/dL
Ca ([…], time 14 day): 10.3 mg/dL
Cl ([…], time 14 day): 104.8 meq/L
DBIL ([…], time 14 day): 0.05 mg/dL
GLC ([…], time 14 day): 173.8 mg/dL
IP ([…], time 14 day): 7.3 mg/dL
K ([…], time 14 day): 4.8 meq/L
LDH ([…], time 14 day): 90.2 IU/L
Na ([…], time 14 day): 134.2 meq/L
PL ([…], time 14 day): 127 mg/dL
RALB ([…], time 14 day): 3.9 g/dL
TBIL ([…], time 14 day): 0.3 mg/dL
TC ([…], time 14 day): 59.4 mg/dL
TG ([…], time 14 day): 87.4 mg/dL
TP ([…], time 14 day): 5.8 g/dL
gamma-GTP ([…], time 14 day): 1.6 IU/L
A/G ([…], time 28 day): 2
ALP ([…], time 28 day): 660.6 IU/L
ALT ([…], time 28 day): 29.8 IU/L
AST ([…], time 28 day): 35.4 IU/L
BUN ([…], time 28 day): 20.4 mg/dL
CRE ([…], time 28 day): 0.6 mg/dL
Ca ([…], time 28 day): 10 mg/dL
Cl ([…], time 28 day): 105.4 meq/L
DBIL ([…], time 28 day): 0.014 mg/dL
GLC ([…], time 28 day): 164.8 mg/dL
IP ([…], time 28 day): 6.3 mg/dL
K ([…], time 28 day): 4.5 meq/L
LDH ([…], time 28 day): 114.6 IU/L
Na ([…], time 28 day): 134 meq/L
PL ([…], time 28 day): 125.4 mg/dL
RALB ([…], time 28 day): 3.9 g/dL
TBIL ([…], time 28 day): 0.2 mg/dL
TC ([…], time 28 day): 60.4 mg/dL
TG ([…], time 28 day): 62.4 mg/dL
TP ([…], time 28 day): 5.8 g/dL
gamma-GTP ([…], time 28 day): 1.6 IU/L
